Results taken from US6673795B2, “Pyrimidine, pyrazine and triazane derivatives” (Hoffmann-La Roche Inc., priority 2001, dated 2004).

molecular target: T1, rat mGluR1a receptor (Rattus norvegicus, UniProt P23385); test: Binding assay for the characterization of mGluR 1 antagonistic properties (tritiated radioligand displacement); conditions: membranes of HEK 293 cells transiently transfected with rat mGluR1a; tritiated 1-ethyl-2-methyl-6-oxo-4-(1,1,2-tritritio-1,2,4,5-tetrahydro-benzo[d]azepin-3-yl)-1,6-dihydro-pyrimidine-5-carbonitrile at 3 nM; 1 hour at room temperature
T1 construct: expressed in transfected cells; host or cells: HEK 293 cells, transient transfection; membrane preparation
T1 sequence (P23385 19-1199): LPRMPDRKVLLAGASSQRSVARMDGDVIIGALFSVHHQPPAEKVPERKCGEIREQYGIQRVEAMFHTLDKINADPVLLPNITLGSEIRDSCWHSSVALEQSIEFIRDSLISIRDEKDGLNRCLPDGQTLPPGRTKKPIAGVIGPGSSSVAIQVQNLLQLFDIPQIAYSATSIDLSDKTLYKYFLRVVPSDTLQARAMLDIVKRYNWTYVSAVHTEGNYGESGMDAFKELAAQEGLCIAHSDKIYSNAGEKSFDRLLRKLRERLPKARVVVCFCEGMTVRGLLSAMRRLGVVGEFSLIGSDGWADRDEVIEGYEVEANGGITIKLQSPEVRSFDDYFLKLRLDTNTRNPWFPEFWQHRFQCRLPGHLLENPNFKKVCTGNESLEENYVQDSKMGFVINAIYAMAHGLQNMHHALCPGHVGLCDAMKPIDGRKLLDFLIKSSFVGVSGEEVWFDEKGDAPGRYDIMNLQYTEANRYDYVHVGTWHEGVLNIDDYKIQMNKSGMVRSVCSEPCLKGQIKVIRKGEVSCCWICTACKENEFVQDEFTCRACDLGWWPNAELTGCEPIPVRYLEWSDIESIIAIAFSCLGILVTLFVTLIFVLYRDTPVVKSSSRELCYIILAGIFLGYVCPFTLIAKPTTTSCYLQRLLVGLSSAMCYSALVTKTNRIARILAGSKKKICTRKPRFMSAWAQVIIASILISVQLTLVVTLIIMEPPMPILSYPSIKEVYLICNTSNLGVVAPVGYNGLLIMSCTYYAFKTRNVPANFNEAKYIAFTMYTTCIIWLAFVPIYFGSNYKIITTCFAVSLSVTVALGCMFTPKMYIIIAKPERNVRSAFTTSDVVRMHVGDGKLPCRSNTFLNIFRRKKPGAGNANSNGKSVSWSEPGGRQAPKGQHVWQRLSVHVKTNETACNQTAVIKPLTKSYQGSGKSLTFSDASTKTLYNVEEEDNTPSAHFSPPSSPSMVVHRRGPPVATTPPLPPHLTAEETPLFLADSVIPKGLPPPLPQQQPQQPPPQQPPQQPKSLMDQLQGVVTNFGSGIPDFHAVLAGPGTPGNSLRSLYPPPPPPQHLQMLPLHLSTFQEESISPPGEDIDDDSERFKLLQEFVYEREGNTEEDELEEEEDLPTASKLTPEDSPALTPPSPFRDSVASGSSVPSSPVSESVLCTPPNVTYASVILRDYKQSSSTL
Experimental: Binding Assay for the Characterization of mGluR 1 Antagonistic Properties
Binding assay with tritiated 1-ethyl-2-methyl-6-oxo-4-(1,1,2-tritritio-1,2,4,5-tetrahydro-benzo[d]azepin-3-yl)-1,6-dihydro-pyrimidine-5-carbonitrile: HEK 293 cells were transiently transfected with the rat mGluR^1 a receptor. The cells were collected and washed 3 times with PBS. The cell pellets were frozen at −80° C. Membranes were prepared from HEK 293 cells transfected with the rat mGluR^1 a receptor and used in the binding experiments at 10 μg proteins per assay after resuspension in a HEPES NaOH 20 mM, pH=7.4 binding buffer. 1-Ethyl-2-methyl-6-oxo-4-(1,1,2-tritritio-1,2,4,5-tetrahydro-benzo [d]azepin-3-yl)-1,6-dihydro-pyrimidine-5-carbonitrile (S.A 33.4 Ci/mmol) was used at 3 nM final concentration. The incubation with variable concentrations of potential inhibitors was performed for 1 hour at room temperature, the incubate was then filtered onto GF/B glass fiber filter preincubated 1 hour in PEI 0,1% and washed 3 times with 1 ml of cold binding buffer. The radioactivity retained on the unifilter 96 was counted using a Topcount β counter. After correction for non specific binding the data were normalized and the IC50 value calculated using a 4 parameters logistic equation which was fitted to the inhibition curve.

| IC50 [nM] | SMILES |
| --- | --- |
| 33 | N#Cc1c(NCCO)nc(NC2CC2)nc1N1CCN(c2ccccc2)CC1 [Example 47, 2-cyclopropylamino-4-(2-hydroxy-ethylamino)-6-(4-phenyl-piperazin-1-yl)-pyrimidine-5-carbonitrile] |
| 25 | CCc1c(C)nc(N2CCN(c3ccc(F)cc3)CC2)c(C#N)[n+]1[O-] [Example 79-1, 5′-ethyl-4-(4-fluoro-phenyl)-6′-methyl-4′-oxy-3,4,5,6-tetrahydro-2H-[1,2′]bipyrazinyl-3′-carbonitrile] |
| 210 | CSc1nc(N)nc(N2CCN(c3ccc(F)cc3)CC2)c1C#N [Example 70, 2-amino-4-[4-(4-fluoro-phenyl)-piperazin-1-yl]-6-methylsulfanyl-pyrimidine-5-carbonitrile] |
| 660 | N#Cc1nnc(NCCO)nc1N1CC=C(c2ccccc2)CC1 [Example 84, 3-(2-Hydroxy-ethylamino)-5-(4-phenyl-3,6-dihydro-2H-pyridin-1-yl)-[1,2,4]triazine-6-carbonitrile] |
| 58 | Cc1nc(OCCO)c([N+](=O)[O-])c(N2CCN(c3ccc(F)cc3)CC2)n1 [Example 8-2, 2-{6-[4-(4-fluoro-phenyl)-piperazin-1-yl]-2-methyl-5-nitro-pyrimidin-4-yloxy}-ethanol] |
| 290 | N#Cc1c(NCCO)nc(NCCO)nc1N1CCN(c2ccccc2F)CC1 [Example 20, 4-[4-(2-Fluoro-phenyl)-piperazin-1-yl]-2,6-bis-(2-hydroxy-ethylamino)-pyrimidine-5-carbonitrile] |
| 1500 | N#Cc1c(NCc2ccccn2)nc(NCc2ccccn2)nc1N1CCN(c2ccccc2)CC1 [Example 40, 4-(4-Phenyl-piperazin-1-yl)-2,6-bis-[(pyridin-2-ylmethyl)-amino]-pyrimidine-5-carbonitrile] |
| 25 | N#Cc1c(Cl)nc(NCC2CC2)nc1N1CCN(c2ccccc2)CC1 [Example 63, 4-chloro-2-(cyclopropylmethyl-amino)-6-(4-phenyl-piperazin-1-yl)-pyrimidine-5-carbonitrile] |
| 23 | CCc1nc(N2CCN(c3ccccc3)CC2)c(C#N)nc1C [Example 75-2, 6′-ethyl-5′-methyl-4-phenyl-3,4,5,6-tetrahydro-2H-[1,2′]bipyrazinyl-3′-carbonitrile] |
| 64 | N#Cc1c(NC2CC2)nc(NC2CC2)nc1N1CCN(c2ccccc2)CC1 [Example 38, 2,4-Bis-cyclopropylamino-6-(4-phenyl-piperazin-1-yl)-pyrimidine-5-carbonitrile] |
| 30 | N#Cc1c(NCCO)nc(NCc2cccnc2)nc1N1CCC(c2ccccc2)CC1 [Example 54, 4-(2-Hydroxy-ethylamino)-6-(4-phenyl-piperidin-1-yl)-2-[(pyridin-3-ylmethyl)-amino]-pyrimidine-5-carbonitrile] |
| 150 | N#Cc1c(NCCO)nc(NCc2cccnc2)nc1N1CCN(c2ccccc2)CC1 [Example 49, 4-(2-Hydroxy-ethylamino)-6-(4-phenyl-piperazin-1-yl)-2-[(pyridin-3-ylmethyl)-amino]-pyrimidine-5-carbonitrile] |
| 390 | N#Cc1c(NCCO)nc(NCCO)nc1N1CC=C(c2ccc(F)cc2)CC1 [Example 35, 4-[4-(4-Fluoro-phenyl)-3,6-dihydro-2H-pyridin-1-yl]-2,6-bis-(2-hydroxy-ethylamino)-pyrimidine-5-carbonitrile] |
| 42 | Cc1nc(N2CCN(c3ccc(F)cc3)CC2)c([N+](=O)[O-])c(=O)n1CCO [Example 8-1, 6-[4-(4-fluoro-phenyl)-piperazin-1-yl]-3-(2-hydroxy-ethyl)-2-methyl-5-nitro-3H-pyrimidin-4-one] |
| 210 | CCc1nc(N2CCN(c3ccc(F)cc3)CC2)c(C#N)[n+]([O-])c1C [Example 79-2, 6′-ethyl-4-(4-fluoro-phenyl)-5′-methyl-4′-oxy-3,4,5,6-tetrahydro-2H-[1,2′]bipyrazinyl-3′-carbonitrile] |
| 49 | CCn1c(C)nc(N2CCN(c3ccc(F)cc3)CC2)c([N+](=O)[O-])c1=O [Example 10-1, 3-ethyl-6-[4-(4-fluoro-phenyl)-piperazin-1-yl]-2-methyl-5-nitro-3H-pyrimidin-4-one] |
| 140 | N#Cc1c(Cl)nc(NCCO)nc1N1CCC(c2ccc(F)cc2)CC1 [Example 68, 4-chloro-6-[4-(4-fluoro-phenyl)-piperidin-1-yl]-2-(2-hydroxy-ethylamino)-pyrimidine-5-carbonitrile] |
| 159 | CSc1nc(N)nc(N2CCC(c3ccc(F)cc3)CC2)c1C#N [Example 73, 2-Amino-4-[4-(4-fluoro-phenyl)-piperidin-1-yl]-6-methylsulfanyl-pyrimidine-5-carbonitrile] |
| 36 | N#Cc1c(OCC(F)(F)F)nc(NCCO)nc1N1CCC(c2ccccc2)CC1 [Example 60, 2-(2-Hydroxy-ethylamino)-4-(4-phenyl-piperidin-1-yl)-6-(2,2,2-trifluoro-ethoxy)-pyrimidine-5-carbonitrile] |
| 350 | CSc1ccccc1N1CCN(c2nc(NCCO)nc(NCCO)c2C#N)CC1 [Example 25, 2,4-Bis-(2-hydroxy-ethylamino)-6-[4-(2-methylsulfanyl-phenyl)-piperazin-1-yl]-pyrimidine-5-carbonitrile] |
| 700 | N#Cc1c(NCCO)nc(NCCO)nc1N1CCC(c2ccc(F)cc2)CC1 [Example 32, 4-[4-(4-Fluoro-phenyl)-piperidin-1-yl]-2,6-bis-(2-hydroxy-ethylamino)-pyrimidine-5-carbonitrile] |
| 1800 | N#Cc1c(NCCO)nc(NCCO)nc1N1CCC(C#N)(c2ccccc2)CC1 [Example 37, 4-(4-cyano-4-phenyl-piperidin-1-yl)-2,6-bis-(2-hydroxy-ethylamino)-pyrimidine-5-carbonitrile] |
| 750 | N#Cc1c(NCCO)nc(NCCO)nc1N1CCN(c2ccccc2[N+](=O)[O-])CC1 [Example 29, 2,4-Bis-(2-hydroxy-ethylamino)-6-[4-(2-nitro-phenyl)-piperazin-1-yl]-pyrimidine-5-carbonitrile] |

system: not given; test: not given; conditions: not given

| melting point | SMILES |
| --- | --- |
| 114 to 117 °C | Cc1nc(OCC(F)(F)F)c([N+](=O)[O-])c(N2CCC(c3ccccc3)CC2)n1 [Example 9-2, 2-methyl-5-nitro-4-(4-phenyl-piperidin-1-yl)-6-(2,2,2-trifluoro-ethoxy)-pyrimidine] |
| 45 to 48 °C | COCCOc1nc(C)nc(N2CCC(c3ccc(F)cc3)CC2)c1[N+](=O)[O-] [Example 14-2, 4-[4-(4-fluoro-phenyl)-piperidin-1-yl]-6-(2-methoxy-ethoxy)-2-methyl-5-nitro-pyrimidine] |
| 117 to 120 °C | Cc1nc(N2CCN(c3ccc(F)cc3)CC2)c(C#N)nc1-c1ccccc1 [Example 80, 4-(4-Fluoro-phenyl)-6′-methyl-5′-phenyl-3,4,5,6-tetrahydro-2H-[1,2′]bipyrazinyl-3′-carbonitrile] |
| 212 to 216 °C (dec.) | Cc1nc(N2CC=C(c3ccccc3)CC2)c([N+](=O)[O-])c(=O)[nH]1 [Example 6, 2-Methyl-5-nitro-6-(4-phenyl-3,6-dihydro-2H-pyridin-1-yl)-3H-pyrimidin-4-one] |
| 98 to 100 °C | Cc1nc(OC(C)C)c([N+](=O)[O-])c(N2CCN(c3ccc(F)cc3)CC2)n1 [Example 11, 4-[4-(4-Fluoro-phenyl)-piperazin-1-yl]-6-isopropoxy-2-methyl-5-nitro-pyrimidine] |
| 218 to 221 °C (dec.) | Cc1nc(N2CCC(c3ccc(F)cc3)CC2)c([N+](=O)[O-])c(=O)[nH]1 [Example 7, 6-[4-(4-Fluoro-phenyl)-piperidin-1-yl]-2-methyl-5-nitro-3H-pyrimidin-4-one] |
| 61 to 64 °C | Cc1nc(OCC(F)(F)F)c([N+](=O)[O-])c(N2CCC(c3ccc(F)cc3)CC2)n1 [Example 13-2, 4-[4-(4-fluoro-phenyl)-piperidin-1-yl]-2-methyl-5-nitro-6-(2,2,2-trifluoro-ethoxy)-pyrimidine] |
| 155 to 158 °C | N#Cc1ncc(NCCO)nc1N1CCC(c2ccc(F)cc2)CC1 [Example 82, 3-[4-(4-Fluoro-phenyl)-piperidin-1-yl]-5-(2-hydroxy-ethylamino)-pyrazine-2-carbonitrile] |
| 92 to 95 °C | Cc1nc(OCC(F)(F)F)c([N+](=O)[O-])c(N2CCN(c3ccc(F)cc3)CC2)n1 [Example 12-2, 4-[4-(4-fluoro-phenyl)-piperazin-1-yl]-2-methyl-5-nitro-6-(2,2,2-trifluoro-ethoxy)-pyrimidine] |
| > 250 °C (dec.) | Cc1nc(N2CCC(O)(c3ccccc3)CC2)c([N+](=O)[O-])c(=O)[nH]1 [Example 3, 6-(4-Hydroxy-4-phenyl-piperidin-1-yl)-2-methyl-5-nitro-3H-pyrimidin-4-one] |
| 213 to 215 °C (dec.) | Cc1nc(N2CCC(c3ccc(F)cc3)CC2)c([N+](=O)[O-])c(=O)n1CC#N [Example 16, {4-[4-(4-Fluoro-phenyl)-piperidin-1-yl]-2-methyl-5-nitro-6-oxo-6H-pyrimidin-1-yl}-acetonitrile] |
| > 250 °C (dec.) | Cc1nc(N2CCN(c3ccccc3)CC2)c([N+](=O)[O-])c(=O)[nH]1 [Example 4, 2-Methyl-5-nitro-6-(4-phenyl-piperazin-1-yl)-3H-pyrimidin-4-one] |
